The source of these data is EP2604265A1, “P2x7 antagonists as frontline or adjunctive treatment against status epilepticus” (Royal College of Surgeons in Ireland (RCSI), priority 2011, dated 2013).

The target of the test is T1, P2X7R (Mus musculus, UniProt Q9Z1M0).
T1 construct: endogenous in cells; host or cells: primary hippocampal neurons from E17 mouse embryos
T1 sequence (Q9Z1M0 1-595): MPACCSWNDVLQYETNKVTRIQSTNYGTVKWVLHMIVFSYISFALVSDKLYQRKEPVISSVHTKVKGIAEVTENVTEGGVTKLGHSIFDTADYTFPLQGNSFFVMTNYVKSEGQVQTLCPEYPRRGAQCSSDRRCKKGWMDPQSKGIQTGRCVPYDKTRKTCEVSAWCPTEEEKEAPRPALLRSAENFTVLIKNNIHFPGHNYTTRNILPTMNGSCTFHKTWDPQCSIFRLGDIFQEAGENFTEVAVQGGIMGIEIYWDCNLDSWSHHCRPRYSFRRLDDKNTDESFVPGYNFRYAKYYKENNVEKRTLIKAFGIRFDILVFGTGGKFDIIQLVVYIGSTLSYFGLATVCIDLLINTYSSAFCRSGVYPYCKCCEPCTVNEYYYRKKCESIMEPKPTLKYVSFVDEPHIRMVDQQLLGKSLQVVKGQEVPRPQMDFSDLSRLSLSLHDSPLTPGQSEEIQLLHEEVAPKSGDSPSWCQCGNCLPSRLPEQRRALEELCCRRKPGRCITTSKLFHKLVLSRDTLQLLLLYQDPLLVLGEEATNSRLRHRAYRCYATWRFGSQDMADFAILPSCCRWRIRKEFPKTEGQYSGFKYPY
The test can be described thus: Fura-2 calcium microfluorimetry, BzATP-evoked calcium entry. Type of test: cell-based. The note with it: cultured hippocampal neurons; BzATP 100 µM; BBG 1 µM. Here is the method:
Hippocampal neurons were prepared as described previously (Diaz-Hernandez et al., 2008). Briefly, hippocampi were obtained from E17 mouse embryos and, after dissection and washing three times in Ca^2+/Mg^2+-free HBSS, tissue was digested in the same solution with 0.25% trypsin for 15 min at 37°C. Hippocampi were then washed three times in Ca^2+/Mg^2+-free HBSS and dissociated with a firepolished Pasteur pipette. Cells were counted, resuspended in plating medium (MEM, 10% fetal bovine serum, 0.6% glucose) and plated at a density of 5,000 cells/cm^2 on poly-L-lysine coated coverslips (1 mg/ml). After plating, neurons were cultured for 24-72 h in neuronal culture medium (Neurobasal, B-27, glutamax-I). For biochemical experiments, hippocampal neurons were plated on polylysine-coated (1 mg/ml) 60-mm plates at a density of 200,000 cells/cm^2, and cultured for 72 h in neuronal culture medium. AraC was added at a final concentration of 5 µM after 2 days in culture.
Calcium microfluorimetric analysis in single neurons was carried out according to (Diaz-Hernandez et al., 2001). […]
Neurons were visualized using a Plan Fluor x40 S/0.5-1.3 oil lens. […] The background was subtracted at each wavelength and the 340 / 380 ratio was calculated. The data are represented as the normalized F340/F380 fluorescence ratio, which increases as [Ca^2+]i increases.

As to `CCOc1ccc(Nc2ccc(C(=C3C=CC(=[N+](CC)Cc4cccc(S(=O)(=O)[O-])c4)C=C3C)c3ccc(N(CC)Cc4cccc(S(=O)(=O)O)c4)cc3C)cc2)cc1` [BBG, Brilliant Blue G], the “P2X7R-gated (BzATP-induced) calcium entry” value is on record as “effective to block”.
